Assay results published in publication PMC9221290, “Alkaloids of Dicranostigma franchetianum (Papaveraceae) and Berberine Derivatives as a New Class of Antimycobacterial Agents” (Biomolecules, 2022).
Converted amounts (≈) assume the structure as drawn. Read-outs that look alike come from different tables or passages of the source.

Tests used:
[1] = test system: five Mycobacterium or Mycolicibacterium strains; test: organism not typed; type: cell-based; conditions: read-out: MICs against all tested mycobacterial strains
HepG2 cells [2] = test: cells; conditions: Homo sapiens, HepG2, 24 h
[3] = test system: Mycolicibacterium aurum DSM 43999 (ATCC 23366); test: Antimycobacterial microdilution broth assay (resazurin), M. aurum; type: cell-based; conditions: Mycolicibacterium aurum, 72 h
[4] = test system: Mycobacterium avium DSM 44156 (ATCC 25291); test: Antimycobacterial microdilution broth assay (resazurin), M. avium; type: cell-based; conditions: Mycobacterium avium, 96 h, read-out: MIC M. avium, microdilution broth, resazurin, 96 h
in vitro = conditions: human, % of cell viability compared to control; for viability at 0.1 µM: HepG2, 0.1 µM; for viability at 1 µM: HepG2, 1 µM; for viability at 5 µM: HepG2, 5 µM; for viability at 10 µM: HepG2, 10 µM; for viability at 20 µM: HepG2, 20 µM; for viability at 30 µM: HepG2, 30 µM; for viability at 40 µM: HepG2, 40 µM; for viability at 50 µM: HepG2, 50 µM; for viability at 25 µM: HepG2, 25 µM; for viability at 75 µM: HepG2, 75 µM; for viability at 100 µM: HepG2, 100 µM
[5] = test system: Mycobacterium kansasii DSM 44162 (ATCC 12478); test: Antimycobacterial microdilution broth assay (resazurin), M. kansasii; type: cell-based; conditions: Mycobacterium kansasii, 96 h
[6] = test system: Mycolicibacterium smegmatis DSM 43465 (ATCC 607); test: Antimycobacterial microdilution broth assay (resazurin), M. smegmatis; type: cell-based; conditions: Mycolicibacterium smegmatis, 48 h
HepG2 cells [7] = test system: HepG2 cells
[8] = test system: Mtb H37Ra ITM-M006710 (ATCC 9431); test: Antimycobacterial microdilution broth assay (resazurin), Mtb H37Ra; type: cell-based, Mycobacterium tuberculosis; conditions: Mycobacterium tuberculosis, read-out: MIC Mtb H37Ra
Aspergillus fumigatus = test system: Aspergillus fumigatus; set-up: method as in PMID 21341176; conditions: read-out: IC50 against Aspergillus fumigatus; cited from earlier work
[9] = test system: methicillin-resistant Staphylococcus aureus; set-up: method as in PMID 21341176; conditions: read-out: IC50 against methicillin-resistant Staphylococcus aureus; cited from earlier work
pulmonary tuberculosis = test system: pulmonary tuberculosis; set-up: method as in PMID 34745081; conditions: mice with pulmonary tuberculosis; cited from earlier work
[10] = test system: Mycolicibacterium smegmatis; set-up: method as in PMID 9784149; conditions: cited from earlier work
M. intracellulare = conditions: cited from earlier work
[11] = read-out: HepG2 IC50, 1. measurement, MTT, 24 h, single measurement 1
[12] = read-out: HepG2 IC50, 2. measurement, MTT, 24 h, single measurement 2
[13] = read-out: HepG2 IC50, 3. measurement, MTT, 24 h, single measurement 3
[14] = read-out: HepG2 IC50, MTT, 24 h incubation
[15] = read-out: MIC M. aurum, microdilution broth, resazurin, 72 h
[16] = read-out: MIC M. kansasii, microdilution broth, resazurin, 96 h
[17] = read-out: MIC M. smegmatis, microdilution broth, resazurin, 48 h
[18] = 120 h, microdilution broth, resazurin, 120 h
[19] = calculated from MIC (µg/mL) and MW

| SMILES | MIC [1] [µg/mL] | IC50 (HepG2 cells [2]; [11]) [µM] | IC50 (HepG2 cells [2]; [12]) [µM] | IC50 (HepG2 cells [2]; [13]) [µM] | IC50 (HepG2 cells [2]; [14]) [µM] | MIC [3, 15] [µg/mL] | MIC [4] [µg/mL] | viability at 1 µM (in vitro; 1. measurement) [%] | viability at 5 µM (in vitro; 1. measurement) [%] | viability at 10 µM (in vitro; 1. measurement) [%] | viability at 50 µM (in vitro; 1. measurement) [%] | viability at 1 µM (in vitro; 2. measurement) [%] | viability at 5 µM (in vitro; 2. measurement) [%] | viability at 10 µM (in vitro; 2. measurement) [%] | viability at 50 µM (in vitro; 2. measurement) [%] | viability at 1 µM (in vitro; 3. measurement) [%] | MIC [5, 16] [µg/mL] | MIC [6, 17] [µg/mL] | MIC [8, 18] [µg/mL] | MIC [8, 19] [µM] | further results |
| --- | --- | --- | --- | --- | --- | --- | --- | --- | --- | --- | --- | --- | --- | --- | --- | --- | --- | --- | --- | --- | --- |
| COc1ccc2cc3[n+](cc2c1OCc1ccccc1Br)CCc1cc2c(cc1-3)OCO2 [16e, 9-O-(2-brombenzyl)berberine chloride] | 0.39 to 3.12 | 11.5 | 11.8 | 12 | 11.6 ± 0.29 | 0.78 | 1.56 | 96.3 | 66.9 | 48.6 | 10.5 | 93.8 | 66.2 | 53.6 | 2.08 | 98.5 | 3.12 | 0.39 | 1.56 | 2.96 | viability at 0.1 µM (in vitro; 1. measurement): 102%; viability at 20 µM (in vitro; 1. measurement): 40.7%; viability at 30 µM (in vitro; 1. measurement): 34.3%; viability at 40 µM (in vitro; 1. measurement): 24.6%; viability at 0.1 µM (in vitro; 2. measurement): 95.5%; viability at 20 µM (in vitro; 2. measurement): 46.1%; viability at 30 µM (in vitro; 2. measurement): 36.5%; viability at 40 µM (in vitro; 2. measurement): 16.2%; viability at 0.1 µM (in vitro; 3. measurement): 92%; viability at 5 µM (in vitro; 3. measurement): 68%; viability at 10 µM (in vitro; 3. measurement): 53.7%; viability at 20 µM (in vitro; 3. measurement): 45.1%; viability at 30 µM (in vitro; 3. measurement): 34.5%; viability at 40 µM (in vitro; 3. measurement): 14.8%; viability at 50 µM (in vitro; 3. measurement): 2.75%; SI (selectivity index) (HepG2 cells [7]): 3.92; IC50 (HepG2 cells [7]; [14]): 11.8 ± 0.29 µM |
| CCOC1c2c(ccc(OC)c2OC)-c2ccc3cc4c(cc3c2N1C)OCO4 (stereo not drawn) [compound 3, 6-ethoxydihydrochelerythrine] | 15.6 to 31.2 (≈ 39.7 to 79.4 µM) |  |  |  |  | 15.6 (≈ 39.7 µM) | 31.2 (≈ 79.4 µM) |  |  |  |  |  |  |  |  |  | 31.2 (≈ 79.4 µM) | 31.2 (≈ 79.4 µM) | 31.2 | 79 |  |
| COc1ccc2c(c1OC)C(OC1c3c(ccc(OC)c3OC)-c3ccc4cc5c(cc4c3N1C)OCO5)N(C)c1c-2ccc2cc3c(cc12)OCO3 (stereo not drawn) [compound 5, bis-[6-(5,6-dihydrochelerythrinyl)]ether] | 15.6 to 31.2 (≈ 21.9 to 43.8 µM) |  |  |  |  | 31.2 (≈ 43.8 µM) | 31.2 (≈ 43.8 µM) |  |  |  |  |  |  |  |  |  | 31.2 (≈ 43.8 µM) | 31.2 (≈ 43.8 µM) | 31.2 | 44 | IC50 (Aspergillus fumigatus): 0.9 µM; IC50 [9]: 1 µM |
| COc1ccc2cc3[n+](cc2c1OCc1ccc(Br)cc1)CCc1cc2c(cc1-3)OCO2 [16g, 9-O-(4-brombenzyl)berberine chloride] |  | 19.2 | 26.9 | 18.2 | 21.4 ± 4.8 | 3.91 | 1.98 | 101 | 70.1 | 53.9 | 42.5 | 96.5 | 76.3 | 59.4 | 47.8 | 85 | 0.98 | 0.98 | 3.91 | 7.42 | viability at 25 µM (in vitro; 1. measurement): 46.7%; viability at 75 µM (in vitro; 1. measurement): 25.8%; viability at 100 µM (in vitro; 1. measurement): 17.9%; viability at 25 µM (in vitro; 2. measurement): 44.7%; viability at 75 µM (in vitro; 2. measurement): 40.7%; viability at 100 µM (in vitro; 2. measurement): 23.9%; viability at 5 µM (in vitro; 3. measurement): 72.1%; viability at 10 µM (in vitro; 3. measurement): 56.6%; viability at 25 µM (in vitro; 3. measurement): 45.8%; viability at 50 µM (in vitro; 3. measurement): 45.5%; viability at 75 µM (in vitro; 3. measurement): 26%; viability at 100 µM (in vitro; 3. measurement): 14%; SI (selectivity index) (HepG2 cells [7]): 2.89 |
| COc1ccc2cc3[n+](cc2c1OC)CCc1cc2c(cc1-3)OCO2 [compound 16, berberine] |  |  |  |  |  |  | 31.2 |  |  |  |  |  |  |  |  |  |  |  | 125 | 336 | MIC ([3]; read-out: MIC M. aurum): 62.5 µg/mL; MIC ([5]; read-out: MIC M. kansasii): 31.2 µg/mL; MIC ([6]; microdilution broth, resazurin, read-out: MIC M. smegmatis): 62.5 µg/mL; effects on bacterial burden (pulmonary tuberculosis): no additive or synergistic effects; lung pathology (pulmonary tuberculosis): decreased lung pathology; MIC against Mycolicibacterium smegmatis [10]: 25 µg/mL; MIC against M. intracellulare (M. intracellulare): 1.56 µg/mL; MIC against M. intracellulare (M. intracellulare; ref Gentry et al. 1998): 200 µg/mL |
